Where “and” joins values, the source holds several entries; their conditions need not be identical. Equal entries are not always repeated.
Each compound was assayed against Replicase polyprotein 1ab (Severe acute respiratory syndrome coronavirus 2, UniProt P0DTD1) (assay: Functional biochemical assay to identify treatments for viral infectious disease that targets SARS-COV-2 nsp3 macrodomain, whereby the mechanism of action displaces an ADP-Ribose modified peptide from the binding site. Utilizing a time-resolved fluorescence method to measure binding by reading the emitted fluorescence intensity in two wavelengths.).
For `CC(C)[C@@H](Nc1ncnc2[nH]cc(C(=O)NC3CC3)c12)c1ccc2c(c1)S(=O)(=O)CCC2`, the IC50 was 260 nM and 145 nM and 150 nM.
`CC(C)[C@@H](Nc1ncnc2[nH]c(-c3cnn(CC(N)=O)c3)cc12)c1ccc2c(n1)OCCO2` was tested, and the IC50 was 242 nM and 68 nM and 134 nM.
`CNC(=O)c1cc2c(N[C@@H](c3ccc4c(c3)S(=O)(=O)CCC4)C(C)C)ncnc2[nH]1` was tested, and the IC50 was 52 nM (2×) and 78 nM and 24 nM and 48 nM and 38 nM and 35 nM and 60 nM.
In the case of `CC(C)[C@@H](Nc1ncnc2[nH]c(-c3cnn(CC(=O)N(C)C)c3)cc12)c1ccc2c(c1)S(=O)(=O)CCC2`, the IC50 is reported as 39 nM and 55 nM and 30 nM and 26 nM and 45 nM and 29 nM and 33 nM.
Compound `Cc1nnc(CNC(=O)c2cc3c(N[C@@H](c4ccc5c(c4)OCCO5)C(C)C)ncnc3[nH]2)o1` has an IC50 of 1120 nM.
With `CC(C)[C@@H](Nc1ncnc2[nH]c(C(=O)NC3(CF)COC3)cc12)c1ccc2c(c1)OCCO2` the IC50 was 1250 nM and 1740 nM.
For `CC(C)[C@@H](Nc1ncnc2[nH]c(-c3cnn(C4(C(N)=O)CC4)c3)cc12)c1ccc2c(c1)OCCO2`, the IC50 was 1040 nM and 1380 nM and 1310 nM.
With `Cc1ncn(C)c1NC(=O)c1cc2c(N[C@@H](c3ccc4c(c3)OCCO4)C(C)C)ncnc2[nH]1` the IC50 was 10700 nM and 19700 nM.
For `CC(C)[C@@H](Nc1ncnc2[nH]c([C@@H]3CCCNC3)cc12)c1ccc2c(c1)OCCO2`, the IC50 was 3490 nM and 5540 nM and 5190 nM.
`CC(C)[C@@H](Nc1ccnc2nn[nH]c12)c1ccc2c(c1)S(=O)(=O)CCC2` showed an IC50 of over 99500 nM.
With `CC(C)[C@@H](Nc1ncnc2[nH]c(C(=O)NCc3c[nH]cn3)cc12)c1ccc2c(c1)OCCO2` the IC50 was 1150 nM and 2570 nM.
In the case of `Cc1cc(CNC(=O)c2cc3c(N[C@@H](c4ccc5c(c4)OCCO5)C(C)C)ncnc3[nH]2)[nH]n1`, the IC50 is reported as 1200 nM.
In the case of `CC(C)[C@@H](Nc1ncnc2[nH]c(C(=O)NCC(C)(C)C#N)cc12)c1ccc2c(c1)OCCO2`, the IC50 is reported as 2100 nM and 4220 nM.
With `COC(=O)c1coc(-c2cc3c(N[C@@H](c4ccc5c(c4)OCCO5)C(C)C)ncnc3[nH]2)c1` the IC50 was 9280 nM and 10700 nM and 10100 nM.
For `CC(C)[C@@H](Nc1ncnc2[nH]c(C(=O)N[C@H]3[C@@H]4CN(C)C[C@@H]43)cc12)c1ccc2c(c1)OCCO2`, the IC50 was 1100 nM and 2060 nM.
For `CO[C@@H]1CCC[C@H]1NC(=O)c1cc2c(N[C@@H](c3ccc4c(c3)OCCO4)C(C)C)ncnc2[nH]1`, the IC50 was 1010 nM and 1340 nM.
In the case of `CC(C)[C@@H](Nc1ncnc2[nH]c(C(=O)NCCc3cnco3)cc12)c1ccc2c(c1)OCCO2`, the IC50 is reported as 954 nM and 1910 nM.
In the case of `CC(C)[C@@H](Nc1ncnc2[nH]c(C(=O)NCCn3cncn3)cc12)c1ccc2c(c1)OCCO2`, the IC50 is reported as 1780 nM.
`Cc1occc1-c1cc2c(N[C@@H](c3ccc4c(c3)OCCO4)C(C)C)ncnc2[nH]1` was tested, and the IC50 was 8540 nM and 8990 nM and 9510 nM.
In the case of `CC(C)[C@@H](Nc1ccnc2[nH]ncc12)c1ccc2c(c1)S(=O)(=O)CCC2`, the IC50 is reported as over 99500 nM.
For `CC(C)[C@@H](Nc1ncnc2[nH]c(C(=O)Nc3cnccc3O)cc12)c1ccc2c(c1)OCCO2`, the IC50 was 9980 nM and 17900 nM.
`CNC(=O)c1c[nH]c2ncnc(N[C@@H](c3ccc4c(c3)NC(=O)CO4)C(C)C)c12` showed an IC50 of 306 nM.
Work on `CC(C)[C@@H](c1ccc2c(c1)OCCO2)N(C)c1ncnc2[nH]c(-c3cnn(CC(N)=O)c3)cc12` yielded an IC50 of 20100 nM.
In the case of `CC(C)[C@@H](Nc1ncnc2[nH]c(-c3cccc(CN4CCS(=O)(=O)CC4)c3)cc12)c1ccc2c(c1)OCCO2`, the IC50 is reported as 3250 nM and 3450 nM and 3570 nM.
`CC(C)[C@@H](Nc1n[nH]c2ncccc12)c1ccc2c(c1)S(=O)(=O)CCC2` showed an IC50 of 43500 nM.
`Cc1cnn(C)c1NC(=O)c1cc2c(N[C@@H](c3ccc4c(c3)OCCO4)C(C)C)ncnc2[nH]1` was tested, and the IC50 was 27300 nM and > 99500 nM.
In the case of `CC(C)[C@@H](Nc1ncnc2[nH]c(C(=O)NC[C@@H]3CCOC3)cc12)c1ccc2c(c1)OCCO2`, the IC50 is reported as 580 nM and 1150 nM.
Work on `CNc1c[nH]c2ncnc(N[C@@H](c3ccc4c(c3)OCCO4)C(C)C)c12` yielded an IC50 of 28900 nM.
In the case of `CC(C)[C@@H](Nc1ncnc2[nH]c(-c3cnn([C@@H](C)C(N)=O)c3)cc12)c1ccc2c(c1)OCCO2`, the IC50 is reported as 422 nM and 498 nM and 497 nM.
In the case of `CC(C)[C@@H](Nc1ncnc2[nH]c(C(=O)NCCC(F)F)cc12)c1ccc2c(c1)OCCO2`, the IC50 is reported as 837 nM and 1340 nM.
In the case of `COCCNC(=O)c1c[nH]c2ncnc(N[C@@H](c3ccc4c(c3)S(=O)(=O)CCC4)C(C)C)c12`, the IC50 is reported as 326 nM.
Compound `Cc1n[nH]c(C)c1-c1cc2c(N[C@@H](c3ccc4c(c3)OCCO4)C(C)C)ncnc2[nH]1` has an IC50 of 31700 nM.
In the case of `CC(C)[C@@H](Nc1cc(C(N)=O)ccn1)c1ccc2c(c1)S(=O)(=O)CCC2`, the IC50 is reported as over 99500 nM.
For `CC(C)[C@@H](Nc1ncnc2[nH]c(C(=O)NCC3(C#N)CC3)cc12)c1ccc2c(c1)OCCO2`, the IC50 was 1090 nM and 2640 nM.
For `CC(C)[C@@H](Nc1ncnc2[nH]ccc12)c1ccc2nn[nH]c2c1`, the IC50 was 3500 nM and 4100 nM and 4030 nM.
With `CC(C)[C@@H](Nc1ncnc2[nH]c(C(=O)NCc3cnco3)cc12)c1ccc2c(c1)OCCO2` the IC50 was 639 nM and 1760 nM.
For `CC(C)[C@@H](Nc1ncnc2[nH]c(C(=O)NCC3=NCCCN3)cc12)c1ccc2c(c1)OCCO2`, the IC50 was 3680 nM and 7820 nM.
For `CC(C)[C@@H](Nc1ncnc2[nH]c(C(=O)Nc3cnoc3)cc12)c1ccc2c(c1)OCCO2`, the IC50 was 1970 nM and 5690 nM.
With `Cc1ncc(-c2cc3c(N[C@@H](c4ccc5c(c4)OCCO5)C(C)C)ncnc3[nH]2)o1` the IC50 was 1160 nM and 1350 nM and 1400 nM.
`CC(C)[C@@H](Nc1ncnc2[nH]c(C(=O)NCc3ncccn3)cc12)c1ccc2c(c1)OCCO2` was tested, and the IC50 was 2940 nM and 5870 nM.
For `Cc1ccc(-c2cc3c(N[C@@H](c4ccc5c(c4)OCCO5)C(C)C)ncnc3[nH]2)o1`, the IC50 was 40600 nM and 37600 nM.
Compound `COc1nc(NC(=O)c2cc3c(N[C@@H](c4ccc5c(c4)OCCO5)C(C)C)ncnc3[nH]2)n[nH]1` has an IC50 of 47200 nM.
In the case of `CC(=O)N1CC(NC(=O)c2cc3c(N[C@@H](c4ccc5c(c4)OCCO5)C(C)C)ncnc3[nH]2)C1`, the IC50 is reported as 793 nM and 2000 nM.
`CC(C)[C@@H](Nc1ncnc2[nH]c(C(=O)NCC3(F)CC3)cc12)c1ccc2c(c1)OCCO2` was tested, and the IC50 was 1360 nM and 2020 nM.
In the case of `CC(C)[C@@H](Nc1ncnc2[nH]c(C3=CCCN(C(=O)OCc4ccccc4)C3)cc12)c1ccc2c(c1)OCCO2`, the IC50 is reported as over 99500 nM.
`CNc1cc(N[C@@H](c2ccc3c(c2)S(=O)(=O)CCC3)C(C)C)ncn1` gave an IC50 of 6080 nM.
With `Cc1ccc([C@@H](Nc2ncnc3[nH]ccc23)C(C)C)cc1S(C)(=O)=O` the IC50 was 7290 nM and 11300 nM.
`CC(C)[C@@H](Nc1ncnc2[nH]c(-c3ccc(CC#N)cc3)cc12)c1ccc2c(c1)OCCO2` was tested, and the IC50 was 26400 nM and 28900 nM.
In the case of `Cc1cc(-c2cc3c(N[C@@H](c4ccc5c(c4)OCCO5)C(C)C)ncnc3[nH]2)co1`, the IC50 is reported as 8700 nM and 13600 nM and 17000 nM.
With `CC(C)[C@@H](Nc1ncnc2[nH]c(-c3cnn(CC(N)=O)c3)cc12)c1ccc2c(n1)NC(=O)CO2` the IC50 was 250 nM and 302 nM and 355 nM.
For `CC(C)[C@@H](Nc1ncnc2[nH]c(C(=O)NCC3(CO)CCC3)cc12)c1ccc2c(c1)OCCO2`, the IC50 was 1300 nM and 2350 nM.
For `CC(C)[C@@H](c1ccc2c(c1)OCCO2)N(C)c1ncnc2[nH]c(Br)cc12`, the IC50 was over 99500 nM.
For `CC(C)[C@@H](Nc1ncnc2[nH]c(C(=O)NCCC3CN(C)C3)cc12)c1ccc2c(c1)OCCO2`, the IC50 was 894 nM.
For `CC(C)[C@@H](Nc1ncnc2[nH]c(C(=O)O)cc12)c1ccc2c(c1)OCCO2`, the IC50 was 11700 nM and 11500 nM.
In the case of `CC(C)[C@@H](Nc1ncnc2[nH]c(C(=O)NC3COC3)cc12)c1ccc2c(c1)OCCO2`, the IC50 is reported as 743 nM and 1540 nM.
For `CC(C)[C@@H](Nc1ncnc2[nH]c(C(=O)NCCc3cn[nH]c3)cc12)c1ccc2c(c1)OCCO2`, the IC50 was 1360 nM and 3400 nM.
In the case of `CC(C)[C@@H](Nc1ncnc2[nH]c(C(=O)NC3CN(C)C3)cc12)c1ccc2c(c1)OCCO2`, the IC50 is reported as 1440 nM and 3270 nM.
For `COCCC1(NC(=O)c2cc3c(N[C@@H](c4ccc5c(c4)OCCO5)C(C)C)ncnc3[nH]2)CC1`, the IC50 was 2840 nM and 4420 nM.
With `CC(C)[C@@H](Nc1ncnc2[nH]c(C(=O)NC34CC(C#N)(C3)C4)cc12)c1ccc2c(c1)OCCO2` the IC50 was 1360 nM and 1930 nM.
`CC(C)[C@@H](Nc1ncnc2[nH]c(C(=O)Nc3cn[nH]c3)cc12)c1ccc2c(c1)OCCO2` gave an IC50 of 2570 nM.
`COc1cn[nH]c1NC(=O)c1cc2c(N[C@@H](c3ccc4c(c3)OCCO4)C(C)C)ncnc2[nH]1` showed an IC50 of 72600 nM.

From ChEMBL document CHEMBL5441456, “ASAP - SARS-CoV-2 nsp3 macrodomain dose response” (2024)
